What was measured:
human orexin-2 receptor = human orexin-2 receptor (Homo sapiens (Human), UniProt O43614); test: FLIPR Ca2+ Flux Assay, CHO cells expressing human orexin-2 receptor; assay type: cell-based; conditions: agonist 70 pM Ala-6,12 human orexin-A, read-out: hOX2R FLIPR IC50
Method: (§1) The utility of the compounds in accordance with the present invention as orexin receptor OX1R and/or OX2R antagonists may be readily determined without undue experimentation by methodology well known in the art, including the “FLIPR Ca^2+ Flux Assay” (Okumura et al., Biochem. Biophys. Res. Comm. 280:976-981, 2001). In a typical experiment the OX1 and OX2 receptor antagonistic activity of the compounds of the present invention was determined in accordance with the following experimental method. For intracellular calcium measurements, Chinese hamster ovary (CHO) cells expressing the rat orexin-1 receptor or the human orexin-2 receptor, are grown in Iscove's modified DMEM containing 2 mM L-glutamine, […], 1% hypoxanthine-thymidine supplement, 100 U/ml penicillin, 100 μg/ml streptomycin and 10% heat-inactivated fetal calf serum (FCS). The cells are seeded at 20,000 cells/well into Becton-Dickinson black 384-well clear bottom sterile plates coated with poly-D-lysine. All reagents were from GIBCO-Invitrogen Corp. The seeded plates are incubated overnight at […]. and 5% CO2. Ala-6,12 human orexin-A as the agonist is prepared as a 1 mM stock solution in 1% bovine serum albumin (BSA) and diluted in assay buffer (HBSS containing 20 mM HEPES, 0.1% BSA and 2.5 mM probenecid, pH7.4) for use in the assay at a final concentration of 70 pM. Test compounds are prepared as 10 mM stock solution in DMSO, then diluted in 384-well plates, first in DMSO, then assay buffer. On the day of the assay, cells are washed 3 times with 100 μl assay buffer and then incubated for 60 min (37° C., 5% CO2) in 60 μl assay buffer containing 1 μM Fluo-4AM ester, 0.02% pluronic acid, and 1% BSA. The dye loading solution is then aspirated and cells are washed 3 times with 100 μl assay buffer. 30 μl of that same buffer is left in each well. Within the Fluorescent Imaging Plate Reader (FLIPR, Molecular Devices), test compounds are added to the plate in a volume of 25 μl, incubated for 5 min and finally 25 μl of agonist is added. Fluorescence is measured for each well at 1 second intervals for 5 minutes and the height of each fluorescence peak is compared to the height of the fluorescence peak induced by 70 pM Ala-6,12 orexin-A with buffer in place of antagonist. For each antagonist, IC50 value (the concentration of compound needed to inhibit 50% of the agonist response) is determined. Alternatively, compound potency can be assessed by a radioligand binding assay (described in Bergman et. al. Bioorg. Med. Chem. Lett. 2008, 18, 1425-1430) in which the inhibition constant (Ki) is determined in membranes prepared from CHO cells expressing either the OX1 or OX2 receptor. The intrinsic orexin receptor antagonist activity of a compound which may be used in the present invention may be determined by these assays.

rat orexin-1 receptor = rat orexin-1 receptor (Rattus norvegicus, UniProt P56718); test: FLIPR Ca2+ Flux Assay, CHO cells expressing rat orexin-1 receptor; assay type: cell-based; conditions: agonist 70 pM Ala-6,12 human orexin-A, text says rat orexin-1 receptor, read-out: hOX1R FLIPR IC50
Method: as §1

human orexin-2 receptor, sequence (O43614 whole entry): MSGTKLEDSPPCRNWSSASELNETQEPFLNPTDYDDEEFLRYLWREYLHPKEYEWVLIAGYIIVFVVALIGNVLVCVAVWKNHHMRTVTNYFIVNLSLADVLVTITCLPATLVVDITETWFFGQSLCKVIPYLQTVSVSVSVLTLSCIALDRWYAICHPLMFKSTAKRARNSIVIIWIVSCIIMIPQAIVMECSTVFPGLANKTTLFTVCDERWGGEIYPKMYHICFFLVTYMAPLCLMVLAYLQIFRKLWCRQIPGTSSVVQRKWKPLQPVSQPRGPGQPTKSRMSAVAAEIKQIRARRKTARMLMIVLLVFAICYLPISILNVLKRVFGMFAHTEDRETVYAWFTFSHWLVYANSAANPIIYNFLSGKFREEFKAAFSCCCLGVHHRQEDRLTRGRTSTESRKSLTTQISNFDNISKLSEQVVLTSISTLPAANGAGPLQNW

| SMILES | IC50 (human orexin-2 receptor) [nM] | IC50 (rat orexin-1 receptor) [nM] |
| --- | --- | --- |
| CCCN(c1cc(C#N)ccn1)[C@@H]1CC[C@@H](C)N(C(=O)c2ccccc2-n2nccn2)C1 [Example 14, 2-{[(3R,6R)-6-methyl-1-{[2-(2H-1,2,3-triazol-2-yl)phenyl]carbonyl}piperidin-3-yl](propyl)-amino}pyridine-4-carbonitrile] | 13 | 330 |
| COc1c(C#N)ccnc1N(C)[C@@H]1CC[C@@H](C)N(C(=O)c2ccsc2-c2ncccn2)C1 [Example 11, 3-methoxy-2-(methyl{(3R,6R)-6-methyl-1-[(2-pyrimidin-2-ylthiophen-3-yl)carbonyl]piperidin-3-yl}amino)pyridine-4-carbonitrile] | 34 | > 10000 |
| C[C@@H]1CC[C@@H](Nc2cc(C#N)ccn2)CN1C(=O)c1ccccc1-n1ncnn1 [Example 3, 2-(((3R,6R)-1-(2-(2H-Tetrazol-2-yl)benzoyl)-6-methylpiperidin-3-yl)amino)isonicotinonitrile] | 9 | 1920 |
| C[C@@H]1CC[C@@H](N(C)c2cc(C#N)ccn2)CN1C(=O)c1ccccc1-n1ncnn1 [Example 9, 2-{methyl[(3R,6R)-6-methyl-1-{[2-(2H-tetrazol-2-yl)phenyl]-carbonyl}piperidin-3-yl]amino}pyridine-4-carbonitrile] | 32 | 2240 |
| Cc1c(C#N)ccnc1N[C@@H]1CC[C@@H](C)N(C(=O)c2ccccc2-n2ncnn2)C1 [Example 5, 3-methyl-2-{[(3R,6R)-6-methyl-1-{[2-(2H-tetrazol-2-yl)phenyl]-carbonyl}-piperidin-3-yl]amino}pyridine-4-carbonitrile] | 7 | 1150 |
| COc1c(C#N)ccnc1N[C@@H]1CC[C@@H](C)N(C(=O)c2ccccc2-n2nccn2)C1 [Example 2, 3-methoxy-2-{[(3R,6R)-6-methyl-1-{[2-(2H-1,2,3-triazol-2-yl)phenyl]carbonyl}piperidin-3-yl]amino}pyridine-4-carbonitrile] | 11 | 267 |
| CC(=O)N(c1cc(C#N)ccn1)[C@@H]1CC[C@@H](C)N(C(=O)c2ccccc2-n2nccn2)C1 [Example 15, N-((3R,6R)-1-(2-(2H-1,2,3-Triazol-2-yl)benzoyl)-6-methylpiperidin-3-yl)-N-(4-cyanopyridin-2-yl)acetamide] |  | > 10000 |
| C[C@@H]1CC[C@@H](Nc2cc(C#N)ccn2)CN1C(=O)c1ccccc1-n1nccn1 [Example 1, 2-(((3R,6R)-1-(2-(2H-1,2,3-Triazol-2-yl)benzoyl)-6-methylpiperidin-3-yl)amino)isonicotinonitrile] | 29 | 1740 |
| Cc1c(C#N)ccnc1N[C@@H]1CC[C@@H](C)N(C(=O)c2ccccc2-n2nccn2)C1 [Example 4, 2-(((3R,6R)-1-(2-(2H-1,2,3-Triazol-2-yl)benzoyl)-6-methylpiperidin-3-yl)amino)-3-methylisonicotinonitrile] | 7 | 745 |
| COc1c(C#N)ccnc1N(C)[C@@H]1CC[C@@H](C)N(C(=O)c2ccsc2-n2nccn2)C1 [Example 10, 3-methoxy-2-{methyl[(3R,6R)-6-methyl-1-{[2-(2H-1,2,3-triazol-2-yl)thiophen-3-yl]carbonyl}piperidin-3-yl]amino}pyridine-4-carbonitrile] | 39 | > 10000 |
| CCN(c1cc(C#N)ccn1)[C@@H]1CC[C@@H](C)N(C(=O)c2ccccc2-n2nccn2)C1 [Example 12, 2-{ethyl[(3R,6R)-6-methyl-1-{[2-(2H-1,2,3-triazol-2-yl)phenyl]carbonyl}piperidin-3-yl]amino}-pyridine-4-carbonitrile] | 23 | 1990 |
| COc1c(C#N)ccnc1N[C@@H]1CC[C@@H](C)N(C(=O)c2ccsc2-n2nccn2)C1 [Example 6, 2-((3R,6R)-1-(2-(2H-1,2,3-Triazol-2-yl)thiophene-3-carbonyl)-6-methylpiperidin-3-ylamino)-3-methoxyisonicotinonitrile] | 11 | 827 |
| C[C@@H]1CC[C@@H](N(C)c2cc(C#N)ccn2)CN1C(=O)c1ccccc1-n1nccn1 [Example 8, 2-(((3R,6R)-1-(2-(2H-1,2,3-Triazol-2-yl)benzoyl)-6-methylpiperidin-3-yl)(methyl)amino)isonicotinonitrile] | 20 | 2050 |
| COc1c(C#N)ccnc1N[C@@H]1CC[C@@H](C)N(C(=O)c2ccsc2-c2ncccn2)C1 [Example 7, 3-methoxy-2-((3R,6R)-6-methyl-1-(2-(pyrimidin-2-yl)thiophene-3-carbonyl)piperidin-3-ylamino)isonicotinonitrile] | 47 | 384 |
| C=CCN(c1cc(C#N)ccn1)[C@@H]1CC[C@@H](C)N(C(=O)c2ccccc2-n2nccn2)C1 [Example 13, 2-{[(3R,6R)-6-methyl-1-{[2-(2H-1,2,3-triazol-2-yl)phenyl]carbonyl}piperidin-3-yl](prop-2-en-1-yl)amino}pyridine-4-carbonitrile] | 23 | 2550 |

Source: patent US9624197B2, “2-pyridylamino-4-nitrile-piperidinyl orexin receptor antagonists” (MERCK SHARP & DOHME CORP., priority 2012, dated 2017)
